# Test results taken from US20240360151A1 (SANOFI, priority 2023, published 2024).
# Molecular target: T1, NLRP3 inflammasome (Homo sapiens, UniProt Q96P20)
# T1 construct: endogenous in cells; host or cells: THP-1 monocytic cells
# Assay: IL-1β secretion assay (NLRP3 IC50) in LPS-primed, nigericin-activated THP-1 cells, HTRF
# Type: cell-based
# Conditions: monocytic THP-1 cells; LPS 10 ng/mL 3 h priming, then compound + nigericin 10 μM 2 h; relative IC50, 10 concentrations, geometric mean
# In short: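 IL-1β in supernatant read by HTRF after 2 h co-incubation of compound (0.1% DMSO, 10 concentrations, 1:3 series) with nigericin at 10 μM final, following 3 h LPS (10 ng/mL) priming of THP-1 monocytes at 37° C. Inhibition normalised to unactivated and no-compound controls; geometric-mean relative IC50 from 4-parameter logistic model.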
# T1 sequence (Q96P20 whole entry): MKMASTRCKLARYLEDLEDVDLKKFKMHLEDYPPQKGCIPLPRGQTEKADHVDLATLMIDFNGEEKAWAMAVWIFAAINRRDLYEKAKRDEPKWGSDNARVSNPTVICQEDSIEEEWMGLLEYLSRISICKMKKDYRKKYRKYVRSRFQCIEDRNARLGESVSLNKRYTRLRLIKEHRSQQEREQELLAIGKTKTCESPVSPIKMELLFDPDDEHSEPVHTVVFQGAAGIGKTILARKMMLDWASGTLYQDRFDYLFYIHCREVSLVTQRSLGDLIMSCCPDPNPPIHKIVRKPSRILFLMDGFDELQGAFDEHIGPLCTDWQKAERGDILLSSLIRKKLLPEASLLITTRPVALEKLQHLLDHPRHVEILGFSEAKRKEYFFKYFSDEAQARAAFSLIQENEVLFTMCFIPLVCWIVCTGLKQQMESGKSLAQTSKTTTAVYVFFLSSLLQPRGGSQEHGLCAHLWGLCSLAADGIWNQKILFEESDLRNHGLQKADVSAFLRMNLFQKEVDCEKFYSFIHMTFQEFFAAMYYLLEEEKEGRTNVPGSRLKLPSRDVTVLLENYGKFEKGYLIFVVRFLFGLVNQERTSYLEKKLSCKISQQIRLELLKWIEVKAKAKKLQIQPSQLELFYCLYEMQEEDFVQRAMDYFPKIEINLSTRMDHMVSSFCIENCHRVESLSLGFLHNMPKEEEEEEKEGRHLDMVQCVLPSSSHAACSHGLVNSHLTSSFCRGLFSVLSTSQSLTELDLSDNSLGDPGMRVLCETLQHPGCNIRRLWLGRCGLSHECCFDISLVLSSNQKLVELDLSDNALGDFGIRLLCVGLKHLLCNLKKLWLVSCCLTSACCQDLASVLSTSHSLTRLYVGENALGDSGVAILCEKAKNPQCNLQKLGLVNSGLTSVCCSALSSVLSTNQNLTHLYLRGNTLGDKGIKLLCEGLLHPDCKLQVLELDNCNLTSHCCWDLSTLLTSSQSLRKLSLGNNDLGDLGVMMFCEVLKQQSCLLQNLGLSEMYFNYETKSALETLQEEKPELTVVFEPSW
row,Structure (SMILES),IC50
1,"Cc1cc(C)c(-c2ccc(N3CCC4(CC3)CC(O)C4)nn2)c(O)c1 [Example 3, 7-[6-(2-hydroxy-4,6-dimethyl-phenyl)pyridazin-3-yl]-7-azaspiro[3.5]nonan-2-ol]",2030 nM
2,"Cc1cc(C)c(-c2ccc(N3CCC4(CC3)CNC4)nn2)c(O)c1 [Example 7, 2-[6-(2,7-diazaspiro[3.5]nonan-7-yl)pyridazin-3-yl]-3,5-dimethyl-phenol; 2,2,2-trifluoroacetic acid]",5470 nM
3,"NCC1CCN(c2ccc(-c3c(O)cc(Cl)cc3Cl)nn2)CC1 [Example 19, 2-[6-[4-(aminomethyl)-1-piperidyl]pyridazin-3-yl]-3,5-dichloro-phenol]",1480 nM
4,"Cc1cc(C(F)(F)F)cc(O)c1-c1ccc(N2CCOC(CN(C)C)C2)nn1 (stereo not drawn) [Example 24, 2-[6-[2-[(dimethylamino)methyl]morpholin-4-yl]pyridazin-3-yl]-3-methyl-5-(trifluoromethyl)phenol]",638 nM
5,"Cc1cc(C(F)(F)F)cc(O)c1-c1ccc(N2CCO[C@H](CN(C)C)C2)nn1 [Example 27, 2-[6-[(2R)-2-[(dimethylamino)methyl]morpholin-4-yl]pyridazin-3-yl]-3-methyl-5-(trifluoromethyl)phenol]",1260 nM
6,"NC1CC2(CCN(c3ccc(-c4c(O)cc(Cl)cc4Cl)nn3)CC2)C1 [Example 32, 2-[6-(2-amino-7-azaspiro[3.5]nonan-7-yl)pyridazin-3-yl]-3,5-dichloro-phenol]",3500 nM
7,"Oc1cc(Cl)cc(Cl)c1-c1ccc(N2CCC3(CC2)CC(O)C3)nn1 [Example 37, 7-[6-(2,4-dichloro-6-hydroxy-phenyl)pyridazin-3-yl]-7-azaspiro[3.5]nonan-2-ol]",893 nM
8,"CN(C)C[C@@H]1CN(c2ccc(-c3c(O)cc(Cl)cc3Cl)nn2)CCO1 [Example 43, 3,5-dichloro-2-[6-[(2R)-2-[(dimethylamino)methyl]morpholin-4-yl]pyridazin-3-yl]phenol]",603 nM
9,"OC[C@@H]1CN(c2ccc(-c3c(O)cccc3F)nn2)CCO1 [Example 44, 3-fluoro-2-[6-[(2S)-2-(hydroxymethyl)morpholin-4-yl]pyridazin-3-yl]phenol]",862 nM
10,"CC(=O)NC1CC2(CCN(c3ccc(-c4c(O)cc(Cl)cc4Cl)nn3)CC2)C1 [Example 47, N-[7-[6-(2,4-dichloro-6-hydroxy-phenyl)pyridazin-3-yl]-7-azaspiro[3.5]nonan-2-yl]acetamide]",1040 nM
11,"Oc1cc(Cl)cc(Cl)c1-c1ccc(N2CCC(F)(F)CC2)nn1 [Example 49, 3,5-dichloro-2-[6-(4,4-difluoro-1-piperidyl)pyridazin-3-yl]phenol]",672 nM
12,"CN(C)C[C@H]1CCCN(c2ccc(-c3c(O)cc(Cl)cc3Cl)nn2)C1 [Example 50, 3,5-dichloro-2-[6-[(3R)-3-[(dimethylamino)methyl]-1-piperidyl]pyridazin-3-yl]phenol]",549 nM
13,"CN(C)C[C@@H]1CCCN(c2ccc(-c3c(O)cc(Cl)cc3Cl)nn2)C1 [Example 51, 3,5-dichloro-2-[6-[(3S)-3-[(dimethylamino)methyl]-1-piperidyl]pyridazin-3-yl]phenol]",1050 nM
14,"CCN[C@H]1CCCN(c2ccc(-c3c(C)cc(C)cc3O)nn2)C1 [Example 68, 2-[6-[(3S)-3-(ethylamino)-1-piperidyl]pyridazin-3-yl]-3,5-dimethyl-phenol]",1220 nM
15,"COC[C@H]1CCN(c2ccc(-c3c(C)cc(C)cc3O)nn2)C1 [Example 82, 2-[6-[(3S)-3-(methoxymethyl)pyrrolidin-1-yl]pyridazin-3-yl]-3,5-dimethyl-phenol]",481 nM
16,"Cc1cc(C)c(-c2ccc(N3CC4(CCC(O)CC4)C3)nn2)c(O)c1 [Example 83, 2-[6-(2-hydroxy-4,6-dimethyl-phenyl)pyridazin-3-yl]-2-azaspiro[3.5]nonan-7-ol]",2790 nM
17,"Cc1cc(C)c(-c2ccc(N3CC4(CCN4C)C3)nn2)c(O)c1 [Example 91, 3,5-dimethyl-2-[6-(1-methyl-1,6-diazaspiro[3.3]heptan-6-yl)pyridazin-3-yl]phenol]",4930 nM
18,"Cc1cc(C)c(-c2ccc(N3C4CCC3COC4)nn2)c(O)c1 [Example 120, 3,5-dimethyl-2-[6-(3-oxa-8-azabicyclo[3.2.1]octan-8-yl)pyridazin-3-yl]phenol]",2520 nM
19,"Cc1cc(C)c(-c2ccc(N3C[C@H]4NCCO[C@@H]4C3)nn2)c(O)c1 [Example 125, 2-[6-[(4aR,7aR)-3,4,4a,5,7,7a-hexahydro-2H-pyrrolo[3,4-b][1,4]oxazin-6-yl]pyridazin-3-yl]-3,5-dimethylphenol]",1320 nM

# Further lines, results first:
row,IC50,Structure (SMILES)
1,1770 nM,"Cc1cc(C)c(-c2ccc(N3CC4(CCC(O)C4)C3)nn2)c(O)c1 (stereo not drawn) [Example 84, 2-[6-(2-hydroxy-4,6-dimethyl-phenyl)pyridazin-3-yl]-2-azaspiro[3.4]octan-6-ol]"
2,1150 nM,"COC[C@@H]1CCN(c2ccc(-c3c(C)cc(C)cc3O)nn2)C1 [Example 88, 2-[6-[(3R)-3-(methoxymethyl)pyrrolidin-1-yl]pyridazin-3-yl]-3,5-dimethyl-phenol]"
3,614 nM,Cc1cc(C)c(-c2ccc(N3CCO[C@H](CN)C3)nn2)c(O)c1 [Example 89]
4,2200 nM,"Cc1ccc(-c2ccc(N3CCO[C@H](CO)C3)nn2)c(O)c1 [Example 92, 2-[6-[(2S)-2-(hydroxymethyl)morpholin-4-yl]pyridazin-3-yl]-5-methyl-phenol]"
5,879 nM,"Cc1cc(N2CCO[C@H](CO)C2)nnc1-c1ccc(F)cc1O [Example 93, 5-fluoro-2-[6-[(2S)-2-(hydroxymethyl)morpholin-4-yl]-4-methyl-pyridazin-3-yl]phenol]"
6,124 nM,"COc1cc(C)c(-c2ccc(N3CCO[C@H](CO)C3)nn2)c(O)c1 [Example 96, 2-[6-[(2S)-2-(hydroxymethyl)morpholin-4-yl]pyridazin-3-yl]-5-methoxy-3-methyl-phenol]"
7,38 nM,"Cc1cc(N2CCO[C@H](CO)C2)nnc1-c1ccc(C(F)(F)F)cc1O [Example 97, 2-[6-[(2S)-2-(hydroxymethyl)morpholin-4-yl]-4-methyl-pyridazin-3-yl]-5-(trifluoromethyl)phenol]"
8,> 10000 nM,"Cc1ccc(O)c(-c2ccc(N3CCO[C@H](CO)C3)nn2)c1 [Example 102, 2-[6-[(2S)-2-(hydroxymethyl)morpholin-4-yl]pyridazin-3-yl]-4-methyl-phenol]"
9,335 nM,"CC(=O)NC[C@H]1CN(c2ccc(-c3c(C)cc(C)cc3O)nn2)CCO1 [Example 105, N-[[(2S)-4-[6-(2-hydroxy-4,6-dimethyl-phenyl)pyridazin-3-yl]morpholin-2-yl]methyl]acetamide]"
10,174 nM,"CC(=O)NC[C@@H]1CN(c2ccc(-c3c(C)cc(C)cc3O)nn2)CCO1 [Example 106, N-[[(2R)-4-[6-(2-hydroxy-4,6-dimethyl-phenyl)pyridazin-3-yl]morpholin-2-yl]methyl]acetamide]"
11,385 nM,"Cc1cc(C)c(-c2ccc(N3CCCCC(CO)C3)nn2)c(O)c1 (stereo not drawn) [Example 107, 2-[6-[3-(hydroxymethyl)azepan-1-yl]pyridazin-3-yl]-3,5-dimethyl-phenol]"
12,89 nM,"Cc1cc(C)c(-c2cc(C)c(N3CCO[C@H](CO)C3)nn2)c(O)c1 [Example 109, 2-[6-[(2S)-2-(hydroxymethyl)morpholin-4-yl]-5-methyl-pyridazin-3-yl]-3,5-dimethyl-phenol]"
13,3760 nM,"Cc1ccc(-c2cc(C)c(N3CCO[C@H](CO)C3)nn2)c(O)c1 [Example 110, 2-[6-[(2S)-2-(hydroxymethyl)morpholin-4-yl]-5-methyl-pyridazin-3-yl]-5-methyl-phenol]"
14,88 nM,"Cc1cc(C)c(-c2nnc(N3CCO[C@H](CO)C3)cc2C)c(O)c1 [Example 112, 2-[6-[(2S)-2-(hydroxymethyl)morpholin-4-yl]-4-methyl-pyridazin-3-yl]-3,5-dimethyl-phenol]"
15,857 nM,"Cc1cc(C)c(-c2ccc(N3C[C@@H](O)CO3)nn2)c(O)c1 [Example 113, (4R)-2-[6-(2-hydroxy-4,6-dimethyl-phenyl)pyridazin-3-yl]isoxazolidin-4-ol]"
16,958 nM,"Cc1cc(C)c(-c2ccc(N3CC4(CO)CCCC3C4)nn2)c(O)c1 (stereo not drawn) [Example 114, 2-[6-[1-(hydroxymethyl)-6-azabicyclo[3.2.1]octan-6-yl]pyridazin-3-yl]-3,5-dimethyl-phenol]"
17,1540 nM,"Cc1cc(C)c(-c2ccc(N3CC[C@H]3CO)nn2)c(O)c1 [Example 115, 2-[6-[(2S)-2-(hydroxymethyl)azetidin-1-yl]pyridazin-3-yl]-3,5-dimethyl-phenol]"
18,869 nM,"OC[C@@H]1CCN1c1ccc(-c2c(O)cc(Cl)cc2Cl)nn1 [Example 117, 3,5-dichloro-2-[6-[(2S)-2-(hydroxymethyl)azetidin-1-yl]pyridazin-3-yl]phenol]"
19,758 nM,"Cc1cc(C)c(-c2ccc(N3CC[C@@H]3CO)nn2)c(O)c1 [Example 118, 2-[6-[(2R)-2-(hydroxymethyl)azetidin-1-yl]pyridazin-3-yl]-3,5-dimethyl-phenol]"
20,2020 nM,"Cc1cc(C)c(-c2ccc(N3CCOC[C@H]3CN)nn2)c(O)c1 [Example 123, 2-[6-[(3R)-3-(aminomethyl)morpholin-4-yl]pyridazin-3-yl]-3,5-dimethyl-phenol; 2,2,2-trifluoroacetic acid]"
21,1050 nM,"Cc1cc(C)c(-c2ccc(N3CCOC[C@@H]3CN)nn2)c(O)c1 [Example 124, 2-[6-[(3S)-3-(aminomethyl)morpholin-4-yl]pyridazin-3-yl]-3,5-dimethyl-phenol]"
22,779 nM,"Cc1cc(C)c(-c2ccc(N3CCC[C@H](N(C)C)C3)nn2)c(O)c1 [Example 128, 2-[6-[(3S)-3-(dimethylamino)-1-piperidyl]pyridazin-3-yl]-3,5-dimethyl-phenol]"
23,922 nM,"Cc1cc(C)c(-c2ccc(N3CCC[C@@H](N(C)C)C3)nn2)c(O)c1 [Example 148, 2-[6-[(3R)-3-(dimethylamino)-1-piperidyl]pyridazin-3-yl]-3,5-dimethyl-phenol]"
